Data from US8101626B2, “GPR119 receptor agonists in methods of increasing bone mass and of treating osteoporosis and other conditions characterized by low bone mass, and combination therapy relating thereto” (Arena Pharmaceuticals, Inc., priority 2006, dated 2012).

Tests used:
blood GIP level = assay: Effect of oral GPR119 agonist on plasma GIP level (rodent total GIP ELISA) in wild-type mice, with oral glucose bolus; assay type: in vivo, C57blk/6 male mice; details: 20 mg/kg per orally vs vehicle PET, FIG. 1A
Protocol: A. C57blk/6 male mice were fasted for 18 hours, and randomly assigned into fourteen groups with n=6 for each group. Mice were administered per orally with vehicle (PET; 80% PEG400, 10% ethanol, 10% Tween80) or with a GPR119 agonist in accordance with the present invention (Compound 1Z; (2-Fluoro-4-methanesulfonyl-phenyl)-{6-[4-(3-isopropyl-[1,2,4]oxadiazol-5-yl)-piperidin-1-yl]-5-nitro-pyrimidin-4-yl}-amine) at 20 mg/kg, as indicated in FIG. 1A. Thirty minutes after treatment, a glucose bolus at 3 g/kg were delivered per orally, and plasma were collected at 0 (no glucose bolus), 2, 5, 10, 20, 40 and 60 minutes after glucose bolus. Plasma GIP levels were determined by using a rodent GIP ELISA kit purchased from Linco Research Laboratory [Rat/Mouse Gastric Inhibitory Polypeptide (Total) ELISA Catalog #EZRMGIP-55K], following instructions provided by the supplier. […]
B. C57blk/6 male mice were fasted for 18 hours, and randomly assigned into fourteen groups with n=6 for each group. […] Plasma GIP levels were determined by using a rodent GIP ELISA kit purchased from Linco Research Laboratory [Rat/Mouse Gastric Inhibitory Polypeptide (Total) ELISA Catalog #EZRMGIP-55K], following instructions provided by the supplier. […] Mean values of GIP concentration were calculated based on results with six mice in each group and shown as mean±SEM. […]

GPR119 receptor [1] = assay: Effect of oral GPR119 agonist on plasma GIP level in GPR119-deficient (knockout) mice compared to wild-type littermates; assay type: in vivo; details: 20 mg/kg per orally vs vehicle PET; blood at time 0 and 5 min after glucose bolus 3 g/kg; FIG. 2A
Protocol: (§1) A. GPR119-deficient male mice and wild-type littermates were fasted for 18 hours. Mice were administered per orally with vehicle (PET; 80% PEG400, 10% ethanol, 10% Tween80) or with a GPR119 agonist in accordance with the present invention (Compound 1Z; (2-Fluoro-4-methanesulfonyl-phenyl)-{6-[4-(3-isopropyl-[1,2,4]oxadiazol-5-yl)-piperidin-1-yl]-5-nitro-pyrimidin-4-yl}-amine) at 20 mg/kg, as indicated (n=5). Thirty minutes after treatment, blood (100 microliter) was collected via retro orbital vein of the eye (time 0) followed by a glucose bolus at 3 g/kg (per orally). Five minutes after delivering glucose, another blood sample (100 microliter) was collected (time 5 minutes). Plasma were collected after centrifugation and GIP levels were determined by using a rodent GIP ELISA kit purchased from Linco Research Laboratory [Rat/Mouse Gastric Inhibitory Polypeptide (Total) ELISA Catalog #EZRMGIP-55K], following instructions provided by the supplier. […]
(§2) B. GPR119-deficient male mice and wild-type littermates were fasted for 18 hours. […] Plasma were collected after centrifugation and GIP levels were determined by using a rodent GIP ELISA kit purchased from Linco Research Laboratory [Rat/Mouse Gastric Inhibitory Polypeptide (Total) ELISA Catalog #EZRMGIP-55K], following instructions provided by the supplier. […]

GPR119 receptor [2] = biological target: T1, GPR119 receptor (Mus musculus, UniProt Q7TQP3); assay: as above; assay type: in vivo; details: 20 mg/kg per orally; wild-type littermates; time 0 and 5 min after glucose bolus 3 g/kg; FIG. 2A
T1 construct: from tissue; host or cells: whole animal: wild-type male mice dosed orally, compared with GPR119-deficient littermates
T1 sequence (Q7TQP3 1-335): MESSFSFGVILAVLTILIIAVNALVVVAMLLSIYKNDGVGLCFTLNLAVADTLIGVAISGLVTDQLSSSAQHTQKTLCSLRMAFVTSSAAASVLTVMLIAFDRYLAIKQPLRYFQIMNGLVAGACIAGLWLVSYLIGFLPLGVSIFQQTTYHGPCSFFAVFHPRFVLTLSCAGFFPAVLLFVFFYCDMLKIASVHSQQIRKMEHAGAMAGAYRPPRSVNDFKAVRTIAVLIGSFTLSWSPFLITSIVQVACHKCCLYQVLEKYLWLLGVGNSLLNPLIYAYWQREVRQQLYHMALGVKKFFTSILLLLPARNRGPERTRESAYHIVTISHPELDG
Protocol: as §1, §2

Compound: CC(C)c1noc(C2CCN(c3ncnc(Nc4ccc(S(C)(=O)=O)cc4F)c3[N+](=O)[O-])CC2)n1 [Compound 1Z, (2-Fluoro-4-methanesulfonyl-phenyl)-{6-[4-(3-isopropyl-[1,2,4]oxadiazol-5-yl)-piperidin-1-yl]-5-nitro-pyrimidin-4-yl}-amine]
- level of GIP in the blood of the mice (glucose-dependent and glucose-independent) (blood GIP level; glucose bolus 3 g/kg 30 min after treatment, plasma at 0 (no glucose bolus), 2, 5, 10, 20, 40, 60 min): increased both a glucose-dependent and a glucose-independent level of GIP
- plasma total GIP (blood GIP level; glucose bolus 3 g/kg, time course 0-60 min): stimulated plasma total GIP
- glucose-independent and glucose-dependent level of GIP in the blood, GPR119-deficient vs wild-type mice (GPR119 receptor [1]): functional GPR119 receptor was necessary for the administered GPR119 agonist to increase a glucose-independent level and a glucose-dependent level of GIP
- plasma total GIP in wild-type mice (GPR119 receptor [2]): stimulated plasma total GIP in the wild-type mice
